The values that follow come from patent US8268531B2, “Photoacid generator compounds and compositions” (Cornell Research Foundation, Inc., priority 2008, dated 2012).

A short description of one data set: Thermal properties (Td). It counts as physicochemical. Conditions: thermal property of the PAG.
Data set [1] is described as follows: Optical properties: absorptivity at 248 nm in acetonitrile. It counts as physicochemical. Particulars: Measured in acetonitrile.

Consider `O=S(=O)(O)C(F)(F)C(F)(F)CCCl`, for which the Td in “Thermal properties (Td)” is 205 °C.

`O=S(=O)(O)C(F)(F)C(F)(F)Oc1ccccc1` registered a Td in the data set “Thermal properties (Td)” of 190 °C. For the same molecule, the ε248 in data set [1] is given as 6015 cm^2 · mol^-1.

`O=S(=O)(O)C(F)(F)C(F)(F)OC(F)(F)C(F)(F)C1CC2CCC1C2` (centres unmarked) registered a Td in the data set “Thermal properties (Td)” of 164 °C. Further, in data set [1], the ε248 is reported as 5220 cm^2 · mol^-1.

Turning to `O=C1CCC(CC(F)(F)C(F)(F)OC(F)(F)C(F)(F)S(=O)(=O)O)O1` (centres unmarked), the Td in the data set “Thermal properties (Td)” was found to be 165 °C. The molecule also came in with a ε248 in data set [1] of 5400 cm^2 · mol^-1.

With `O=S(=O)(O)C(F)(F)C(F)(F)C(F)(F)C(F)(F)F`, the ε248 in data set [1] was found to be 4200 cm^2 · mol^-1.
